Assay results: patent publication US8648116B2, “Derivatives of N-(arylamino) sulfonamides including polymorphs as inhibitors of MEK as well as compositions, methods of use and methods for preparing the same” (Ardea Biosciences, Inc., priority 2005, dated 2014)
Read-outs that look alike come from different tables or passages of the source.

What was measured:
[1] = Concentration-time profiles after a single dose of capsules; parameters: species or system human cancer patients; conditions: human, in vivo, oral, capsules of example 95A, Day 1; for AUC(0-t): read-out: AUC0-12hr
Protocol: Human cancer patients were administered a single dose of the 1 mg or 10 mg capsule composition described above in example 95A. For a 2 mg dose, patients were given 2×1 mg capsules; for a 4 mg dose, patients were given 4×1 mg capsules; for a 6 mg dose, patients were given 6×1 mg capsules; for a 10 mg dose, patients were given 1×10 mg capsule; for a 20 mg dose, patients were given 2×10 mg capsules.
The concentration-time profiles were monitored and are shown in FIG. 4 and in the table below: […]

human tumor cell lines = test: In vitro cancer screen (SRB; GI50, TGI, LC50); conditions: for CC50: read-out: LC50
MDA-MB231 cells = test: Anchorage-independent growth inhibition (MTS, 7 days); type: cell-based, human
SK Mel28 melanoma cells = test: Anchorage-dependent growth inhibition (ATP content, 48 hr); type: cell-based, human; conditions: SK Mel 28, separate study
[2] = A549/ATCC (Non-Small Cell Lung Cancer)
[3] = EKVX (Non-Small Cell Lung Cancer)
[4] = HOP-62 (Non-Small Cell Lung Cancer)
[5] = HOP-92 (Non-Small Cell Lung Cancer)
[6] = NCI-H23 (Non-Small Cell Lung Cancer)
[7] = NCI-H226 (Non-Small Cell Lung Cancer)
[8] = NCI-H322M (Non-Small Cell Lung Cancer)
[9] = NCI-H460 (Non-Small Cell Lung Cancer)
[10] = NCI-H522 (Non-Small Cell Lung Cancer)

COc1cc(F)c(F)c(Nc2ccc(I)cc2F)c1NS(=O)(=O)C1(C[C@H](O)CO)CC1 [Compound A]
Cmax ([1]; 2 mg, 2 mg dose): 0.111 ng/mL
Tmax ([1]; 2 mg, 2 mg dose): 2 h
Cmax ([1]; 4 mg, 4 mg dose): 0.292 ng/mL
AUC(0-t) ([1]; 2 mg dose): 0.7 ng·h/mL
AUC(0-t) ([1]; 4 mg dose): 2.26 ng·h/mL

COc1cc(F)c(F)c(Nc2ccc(I)cc2F)c1NS(=O)(=O)C1(C[C@H](O)CO)CC1
GI50 (human tumor cell lines; 786-0 (Renal Cancer)): 5.13 µM
TGI (human tumor cell lines; 786-0 (Renal Cancer)): 23.442 µM
GI50 (human tumor cell lines; A498 (Renal Cancer)): 0.191 µM
TGI (human tumor cell lines; A498 (Renal Cancer)): 4.169 µM
GI50 (human tumor cell lines; [2]): 0.589 µM
TGI (human tumor cell lines; [2]): 64.565 µM
GI50 (human tumor cell lines; ACHN (Renal Cancer)): 0.275 µM
TGI (human tumor cell lines; ACHN (Renal Cancer)): 21.878 µM
GI50 (human tumor cell lines; BT-549 (Breast Cancer)): 5.75 µM
TGI (human tumor cell lines; BT-549 (Breast Cancer)): 20.893 µM
GI50 (human tumor cell lines; CAKI-1 (Renal Cancer)): 0.389 µM
TGI (human tumor cell lines; CAKI-1 (Renal Cancer)): 26.915 µM
GI50 (human tumor cell lines; CCRF-CEM (Leukemia)): 17.4 µM
TGI (human tumor cell lines; CCRF-CEM (Leukemia)): 60.256 µM
GI50 (human tumor cell lines; DU-145 (Prostate Cancer)): 2.14 µM
TGI (human tumor cell lines; DU-145 (Prostate Cancer)): 22.387 µM
GI50 (human tumor cell lines; [3]): 0.214 µM
TGI (human tumor cell lines; [3]): 13.804 µM
GI50 (human tumor cell lines; HCC-2998 (Colon Cancer)): 0.01 µM
TGI (human tumor cell lines; HCC-2998 (Colon Cancer)): 0.035 µM
GI50 (human tumor cell lines; HCT-15 (Colon Cancer)): 0.603 µM
TGI (human tumor cell lines; HCT-15 (Colon Cancer)): 16.982 µM
GI50 (human tumor cell lines; HCT-116 (Colon Cancer)): 0.195 µM
TGI (human tumor cell lines; HCT-116 (Colon Cancer)): 12.589 µM
GI50 (human tumor cell lines; HL-60(TB) (Leukemia)): 0.01 µM
TGI (human tumor cell lines; HL-60(TB) (Leukemia)): 100.000 µM
GI50 (human tumor cell lines; [4]): 0.069 µM
TGI (human tumor cell lines; [4]): 12.589 µM
GI50 (human tumor cell lines; [5]): 0.047 µM
TGI (human tumor cell lines; [5]): 0.324 µM
GI50 (human tumor cell lines; HS 578T (Breast Cancer)): 0.617 µM
TGI (human tumor cell lines; HS 578T (Breast Cancer)): 13.490 µM
GI50 (human tumor cell lines; HT29 (Colon Cancer)): 0.026 µM
TGI (human tumor cell lines; HT29 (Colon Cancer)): 3.090 µM
GI50 (human tumor cell lines; IGROV1 (Ovarian Cancer)): 0.018 µM
TGI (human tumor cell lines; IGROV1 (Ovarian Cancer)): 0.295 µM
GI50 (human tumor cell lines; K-562 (Leukemia)): 6.61 µM
TGI (human tumor cell lines; K-562 (Leukemia)): 100.000 µM
GI50 (human tumor cell lines; KM12 (Colon Cancer)): 0.229 µM
TGI (human tumor cell lines; KM12 (Colon Cancer)): 13.490 µM
GI50 (human tumor cell lines; LOX IMVI (Melanoma)): 0.195 µM
TGI (human tumor cell lines; LOX IMVI (Melanoma)): 10.715 µM
GI50 (human tumor cell lines; M14 (Melanoma)): 0.015 µM
TGI (human tumor cell lines; M14 (Melanoma)): 0.166 µM
GI50 (human tumor cell lines; MALME-3M (Melanoma)): 0.01 µM
TGI (human tumor cell lines; MALME-3M (Melanoma)): 0.014 µM
GI50 (human tumor cell lines; MCF7 (Breast Cancer)): 11 µM
TGI (human tumor cell lines; MCF7 (Breast Cancer)): 30.903 µM
GI50 (human tumor cell lines; MDA-MB-231 (Breast Cancer)): 0.069 µM
TGI (human tumor cell lines; MDA-MB-231 (Breast Cancer)): 10.471 µM
GI50 (human tumor cell lines; MDA-MB-435 (Breast Cancer)): 0.035 µM
TGI (human tumor cell lines; MDA-MB-435 (Breast Cancer)): 12.303 µM
GI50 (human tumor cell lines; MDA-MB-468 (Breast Cancer)): 0.019 µM
TGI (human tumor cell lines; MDA-MB-468 (Breast Cancer)): 10.233 µM
GI50 (human tumor cell lines; MOLT-4 (Leukemia)): 11 µM
TGI (human tumor cell lines; MOLT-4 (Leukemia)): 69.183 µM
GI50 (human tumor cell lines; [6]): 0.056 µM
TGI (human tumor cell lines; [6]): 2.884 µM
GI50 (human tumor cell lines; [7]): 3.31 µM
TGI (human tumor cell lines; [7]): 24.547 µM
GI50 (human tumor cell lines; [8]): 0.162 µM
TGI (human tumor cell lines; [8]): 15.488 µM
GI50 (human tumor cell lines; [9]): 3.63 µM
TGI (human tumor cell lines; [9]): 19.498 µM
GI50 (human tumor cell lines; [10]): 5.25 µM
TGI (human tumor cell lines; [10]): 29.512 µM
GI50 (human tumor cell lines; NCI/ADR-RES (Breast Cancer)): 3.47 µM
TGI (human tumor cell lines; NCI/ADR-RES (Breast Cancer)): 25.704 µM
GI50 (human tumor cell lines; OVCAR-3 (Ovarian Cancer)): 2.51 µM
TGI (human tumor cell lines; OVCAR-3 (Ovarian Cancer)): 17.783 µM
GI50 (human tumor cell lines; OVCAR-4 (Ovarian Cancer)): 0.562 µM
TGI (human tumor cell lines; OVCAR-4 (Ovarian Cancer)): 16.218 µM
GI50 (human tumor cell lines; OVCAR-5 (Ovarian Cancer)): 0.017 µM
TGI (human tumor cell lines; OVCAR-5 (Ovarian Cancer)): 12.023 µM
GI50 (human tumor cell lines; PC-3 (Prostate Cancer)): 8.13 µM
TGI (human tumor cell lines; PC-3 (Prostate Cancer)): 37.154 µM
GI50 (human tumor cell lines; RPMI-8226 (Leukemia)): 26.9 µM
TGI (human tumor cell lines; RPMI-8226 (Leukemia)): 100.000 µM
GI50 (human tumor cell lines; SF-268 (CNS Cancer)): 2.57 µM
TGI (human tumor cell lines; SF-268 (CNS Cancer)): 25.704 µM
GI50 (human tumor cell lines; SF-295 (CNS Cancer)): 9.33 µM
TGI (human tumor cell lines; SF-295 (CNS Cancer)): 23.442 µM
GI50 (human tumor cell lines; SF-539 (CNS Cancer)): 1.51 µM
TGI (human tumor cell lines; SF-539 (CNS Cancer)): 20.417 µM
GI50 (human tumor cell lines; SK-MEL-5 (Melanoma)): 0.062 µM
TGI (human tumor cell lines; SK-MEL-5 (Melanoma)): 13.804 µM
GI50 (human tumor cell lines; SK-MEL-28 (Melanoma)): 0.028 µM
TGI (human tumor cell lines; SK-MEL-28 (Melanoma)): 0.214 µM
GI50 (human tumor cell lines; SK-OV-3 (Ovarian Cancer)): 12.9 µM
TGI (human tumor cell lines; SK-OV-3 (Ovarian Cancer)): 41.687 µM
GI50 (human tumor cell lines; SN12C (Renal Cancer)): 0.851 µM
TGI (human tumor cell lines; SN12C (Renal Cancer)): 18.621 µM
GI50 (human tumor cell lines; SNB-19 (CNS Cancer)): 0.251 µM
TGI (human tumor cell lines; SNB-19 (CNS Cancer)): 24.547 µM
GI50 (human tumor cell lines; SNB-75 (CNS Cancer)): 0.302 µM
TGI (human tumor cell lines; SNB-75 (CNS Cancer)): 4.467 µM
GI50 (human tumor cell lines; SR (Leukemia)): 38 µM
TGI (human tumor cell lines; SR (Leukemia)): 100.000 µM
GI50 (human tumor cell lines; SW-620 (Colon Cancer)): 0.039 µM
TGI (human tumor cell lines; SW-620 (Colon Cancer)): 12.589 µM
GI50 (human tumor cell lines; T-47D (Breast Cancer)): 4.9 µM
TGI (human tumor cell lines; T-47D (Breast Cancer)): 38.019 µM
GI50 (human tumor cell lines; TK-10 (Renal Cancer)): 0.224 µM
TGI (human tumor cell lines; TK-10 (Renal Cancer)): 23.442 µM
GI50 (human tumor cell lines; U251 (CNS Cancer)): 0.891 µM
TGI (human tumor cell lines; U251 (CNS Cancer)): 17.378 µM
GI50 (human tumor cell lines; UACC-62 (Melanoma)): 0.014 µM
TGI (human tumor cell lines; UACC-62 (Melanoma)): 0.170 µM
GI50 (human tumor cell lines; UACC-257 (Melanoma)): 0.02 µM
TGI (human tumor cell lines; UACC-257 (Melanoma)): 10.233 µM
GI50 (human tumor cell lines; UO-31 (Renal Cancer)): 0.158 µM
TGI (human tumor cell lines; UO-31 (Renal Cancer)): 11.482 µM
CC50 (human tumor cell lines; HCT-15 (Colon Cancer)): 60.3 µM
CC50 (human tumor cell lines; HT29 (Colon Cancer)): 29.5 µM
CC50 (human tumor cell lines; M14 (Melanoma)): 29.5 µM
CC50 (human tumor cell lines; MDA-MB-435 (Breast Cancer)): 41.7 µM
CC50 (human tumor cell lines; SF-539 (CNS Cancer)): 60.3 µM
CC50 (human tumor cell lines; SK-MEL-28 (Melanoma)): 22.4 µM
CC50 (human tumor cell lines; UACC-62 (Melanoma)): 20.9 µM
GI50 (MDA-MB231 cells; MDA-MB231, anchorage independent): 0.081 µM
anchorage independent growth (FIG. 12C) (MDA-MB231 cells; MDA-MB231 cells): inhibition of MDA-M8231 cells
GI50 (SK Mel28 melanoma cells): 0.105 µM
